One may read the Ki as a measure of affinity in units of concentration, obtained from inhibition or displacement. High values mean a looser hold on the target, low ones a stronger hold on the target.

The first assay concerns the target T1, Adenosine receptor A1 (Rattus norvegicus, UniProt P25099).
T1 sequence (P25099 whole entry): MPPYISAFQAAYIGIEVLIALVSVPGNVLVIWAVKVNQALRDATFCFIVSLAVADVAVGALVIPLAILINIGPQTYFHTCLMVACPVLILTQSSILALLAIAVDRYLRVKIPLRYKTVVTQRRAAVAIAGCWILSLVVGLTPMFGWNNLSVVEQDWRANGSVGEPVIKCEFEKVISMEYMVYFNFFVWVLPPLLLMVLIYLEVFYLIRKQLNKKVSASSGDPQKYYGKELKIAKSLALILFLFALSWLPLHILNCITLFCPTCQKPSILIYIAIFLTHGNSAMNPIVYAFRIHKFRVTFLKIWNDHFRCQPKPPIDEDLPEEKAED
Description: Binding affinity against Adenosine A1 receptor using [3H]CHA in rat brain membranes. Type of assay: cell membranes.
Regarding `OC[C@H]1O[C@@H](n2cnc3c(NC4C[C@H]5CC[C@@H]4C5)ncnc32)[C@H](O)[C@@H]1O` (some centres undefined), affinity was put at a Ki of 0.91 nM.

The compound `OC[C@H]1O[C@@H](n2cnc3c(N[C@@H]4C[C@@H]5CC[C@H]4C5)ncnc32)[C@H](O)[C@@H]1O` gave a Ki of 1.65 nM. Against the preceding compound, the Ki is about 1.8-fold higher.

`O[C@@H]1[C@H](O)[C@@H](CCl)O[C@H]1n1cnc2c(NC3CCCC3)ncnc21` came in with an inhibition constant Ki of 0.72 nM. This Ki is about 2.3-fold lower than that of the compound before.

In the case of `OC[C@H]1O[C@@H](n2cnc3c(NC4CC5CCC4C5)ncnc32)[C@H](O)[C@@H]1O` (some centres undefined), the Ki came to 0.42 nM.

As to `OC[C@H]1O[C@@H](n2cnc3c(N[C@H]4CC5CCC4C5)ncnc32)[C@H](O)[C@@H]1O` (single isomer, unassigned), the Ki was found to be 0.3 nM. The Ki values of the last two compounds are within 1.5-fold of each other.

The target of another assay is Adenosine A2 receptor (Rattus norvegicus, UniProt P29276+P30543). Description: Binding affinity against Adenosine A2 receptor using [3H]NECA with 50 nM CPA in rat striatal brain membranes. The assay is classed as cell membranes, Membrane.
In turn, `O[C@@H]1[C@H](O)[C@@H](CCl)O[C@H]1n1cnc2c(NC3C[C@H]4CCC3C4)ncnc21` (some centres undefined) returned an inhibitory constant (Ki) of 2100 nM.

For the compound `O[C@@H]1[C@H](O)[C@@H](CCl)O[C@H]1n1cnc2c(N[C@@H]3C[C@@H]4CC[C@H]3C4)ncnc21`, the Ki was found to be 3000 nM. This Ki and that of the compound before are within 1.5-fold of each other.

With `O[C@@H]1[C@H](O)[C@@H](CCl)O[C@H]1n1cnc2c(N[C@H]3C[C@H]4CCC3C4)ncnc21`, the Ki worked out at 3900 nM.

Take `O[C@@H]1[C@H](O)[C@@H](CCl)O[C@H]1n1cnc2c(NC3CCCC3)ncnc21`: the inhibition constant Ki amounted to 1870 nM.

The record behind these values is ChEMBL document CHEMBL1124342, “N6-bicycloalkyladenosines with unusually high potency and selectivity for the adenosine A1 receptor” (J Med Chem, 1989).
